One test concerns the target T1, MBR (Rattus norvegicus, UniProt P16257).
T1 construct: from tissue; host or cells: whole brain without cerebellum of male Wistar rats, crude membrane preparation
The test is described as follows: Receptor Binding Experiment (competition with [3H]PK11195). The settings on record: rat brain membrane preparation, [3H]PK11195 as MBR selective ligand; Ki by Cheng and Prusoff formula. Here is the method:
The affinity of the compounds in the present invention to MBR was determined using rat brain membrane preparation. In addition, the measurement in the present invention was improved the accuracy of measurement and the sensitivity of measurement for evaluating the compounds in the present invention as follows. After male Wister rats were decapitated to extirpate the whole brain and cerebellums were removed. They were homogenized in ice-cold 50 mmol/L Tris-HCL buffer solution (pH7.4), centrifuged and the obtained pellets were washed. The pellets resuspended and adjusted to about 1 mg/mL were used as rat brain membrane preparations for binding assay. The binding assay were experimented using [^3H]PK11195 as a MBR selective ligand. […]
To determine the amount of total binding in saturation binding experiment, membrane preparations, various concentrations of [^3H]PK11195, final concentration: 0.5 vol % dimethylsulfoxide (DMSO) and 50 mmol/L Tris-HCL buffer solution (pH7.4) were mixed (total volume 200 μL) and were incubated for 1 hour at room temperature. […] The filter was dried and then the radioactivity on the filter was measured by liquid scintillation counter. The data obtained by the binding experiments were Scatchard-analyzed using analysis software, KELL (Ver. 6, BIOSOFT) and the dissociation constant (KD value) was determined. […]

In a further test the test system is male Wistar rats. The experiment in a line: Evaluation of Anti-Stress Effects (psychological stress, number of defecation). Type of test: in vivo, rat. The following applies: 10 mg/kg orally 30 minutes before stressor; counted 1 hour later; media treated group average 8.0 feces. Here is the method:
Psychological stress was loaded to male Wistar rats (Brain Research, 641, 21-28, 1994). Water was stored up to the depth of about 10 cm in a container where the platform was set at the center. A stressor began to load to rats 30 minutes after the vehicle or the compound in the present invention (the compound of Example 17) were orally administered by dosage of 10 mg/kg. The number of defecation was counted 1 hour later (10 per each group). Rats without administration and load of stressor rarely defecated for 1 hour. In contrast, remarkable defecation was admitted in media treated group (average 8.0 feces) loaded by stressor. […] The results clarified that the compounds in the present invention had anti-stress effects.

Each structure is given as a SMILES string.

The Ki is the dissociation constant of the complex between target and ligand, obtained from inhibition or displacement. Low readings indicate tighter binding, high ones weaker binding. `CC(=O)N1CC2(CC2)c2c([nH]c3ccccc23)C1c1cccc(F)c1` (stereo not drawn) [Example 17, 2-acetyl-1-(3-fluorophenyl)-1,2,3,9-tetrahydrospiro[β-carboline-4,1′-cyclopropane]] returned a Ki on MBR of 21 nM. Further, the “number of defecation (average)” value with male Wistar rats is on record as 5.4 feces.

Values taken from patent US7872133B2, “Tricyclic heterocycle compound” (Ono Pharmaceutical Co., Ltd., priority 2003, dated 2011).
